## OC[C@@H](O)[C@@H](O[C@H]1O[C@H](CO)[C@@H](O)[C@H](O)[C@H]1O)[C@H](O)[C@@H](O)CO
In DMF, 298.15 K
  solubility (mole fraction): 0.00761
In DMF, 303.15 K
  solubility (mole fraction): 0.00819
In DMF, 308.15 K
  solubility (mole fraction): 0.00922
In DMF, 313.15 K
  solubility (mole fraction): 0.0109
In DMF, 318.15 K
  solubility (mole fraction): 0.0128
In DMF, 323.15 K
  solubility (mole fraction): 0.0153
In ethanol, 298.15 K
  solubility (mole fraction): 3.6e-05
In ethanol, 303.15 K
  solubility (mole fraction): 4.4e-05
In ethanol, 308.15 K
  solubility (mole fraction): 5.2e-05
In ethanol, 313.15 K
  solubility (mole fraction): 6.2e-05
In ethanol, 318.15 K
  solubility (mole fraction): 7.4e-05
In ethanol, 323.15 K
  solubility (mole fraction): 9.4e-05
In isopropanol, 298.15 K
  solubility (mole fraction): 1.9e-05
In isopropanol, 303.15 K
  solubility (mole fraction): 2.3e-05
In isopropanol, 308.15 K
  solubility (mole fraction): 2.7e-05
In isopropanol, 313.15 K
  solubility (mole fraction): 3e-05
In isopropanol, 318.15 K
  solubility (mole fraction): 3.8e-05
In isopropanol, 323.15 K
  solubility (mole fraction): 5.1e-05
In methanol, 298.15 K
  solubility (mole fraction): 0.00029
In methanol, 303.15 K
  solubility (mole fraction): 0.000337
In methanol, 308.15 K
  solubility (mole fraction): 0.000393
In methanol, 313.15 K
  solubility (mole fraction): 0.000453
In methanol, 318.15 K
  solubility (mole fraction): 0.000552
In methanol, 323.15 K
  solubility (mole fraction): 0.000706
In water, 298.15 K
  solubility (mole fraction): 0.0616
In water, 303.15 K
  solubility (mole fraction): 0.0671
In water, 308.15 K
  solubility (mole fraction): 0.0786
In water, 313.15 K
  solubility (mole fraction): 0.0972
In water, 318.15 K
  solubility (mole fraction): 0.111
In water, 323.15 K
  solubility (mole fraction): 0.125
